Measurements reported in patent US4665169A, “Carbapenem antibiotics” (Bristol-Myers Company, priority 1985, dated 1987).
Values after ≈ are worked out from the molar mass of the structure shown. Read-outs that look alike come from different tables or passages of the source. One block for each compound: values may come before it.

Legend:
K. pneumoniae A-9664 = test: In vitro antibacterial activity, MIC by tube dilution; assay type: cell-based; details: Klebsiella pneumoniae, A9664; Lot# 1794-20; overnight 37° C., Nutrient Broth
S. pyogenes A-9604 = test: as above; assay type: cell-based; details: overnight 37° C., Nutrient Broth
P. aeruginosa A9843a = test: In vivo activity, 50% protective dose in infected mice; details: Pseudomonas aeruginosa, im, 120 h, i.m., immediately and 2 hour post-infection, deaths over five days, read-out: PD50 (50% protective dose)
Method: BHI broth (9.0 ml) was inoculated with a loopful of thawed stock suspension of P. aeruginosa A9843a and incubated for 18 hr at 37° C. A volume of 0.5 ml of the 18 hr culture was added to 20 ml BHI broth and incubated for 3 hr. with constant shaking at 37° C. A 1/10,000 dilution of the shaker culture was prepared in 0.4% hog gastric mucin. Mice were infected by the intraperitoneal route with 0.5 ml of the bacterial suspension (corresponding to 6.0×10^4 viable cells/mouse).
Each mouse received a volume of 0.2 ml intramuscularly. Deaths were recorded over a period of five days following infection at which time the PD50 for the compound was determined by estimation of the 50% end-point using the probit analysis plot.

[1] = test system: P. aeruginosa (Carbenicillin-resistant) A21213; details: Lot# 1794-27, overnight 37° C., Nutrient Broth
Urinary recovery in mice = assay type: in vivo; details: mouse, urine; for dose excreted at 3 h: 0-3 hr.
Method: Two groups of mice were used for the urinary recovery evaluation. Each group consisted of four 20 g mice. Prior to dosing (5-10 minutes) one of the groups received an i.p. injestion of a dipeptidase inhibitor (BCH-1) at a level of 10 mg/kg. Following dosing, animals were placed in individual metabolism cages and the urine collected over ice at intervals of 0-3 and 3-6 hr. Animals were fasted overnight and a dextrose-amino acid solution was available ad libitum starting one hour before drug administration through six hours of urine collection. Urine samples were assayed for biological activity using sensitive assay plates containing B. subtilis ATCC 6633.

E. cloacae A-9659 = test: In vitro antibacterial activity, MIC by tube dilution; assay type: cell-based; details: Enterobacter cloacae, A9659, Lot# 1794-27; overnight 37° C., Nutrient Broth
[2] = Blood levels in mice after intramuscular dosing; assay type: in vivo; details: mouse, im, 20 mg/kg; for AUC / Cmax / Tmax / half-life: 20 mg/kg i.m.; for concentration at 10 min: 10 min after 20 mg/kg i.m.; for concentration at 20 min: 20 min after 20 mg/kg i.m.; for concentration at 0.5 h: 30 min after 20 mg/kg i.m.; for concentration at 0.75 h: 45 min after 20 mg/kg i.m.; for concentration at 1 h: 60 min after 20 mg/kg i.m.; for concentration at 1.5 h: 90 min after 20 mg/kg i.m.
Method: For the determination of blood levels, two groups of mice were used. Each group consisted of four 20 g mice. Prior to dosing (5-10 min.) one of the groups received an i.p. injection of a dipeptidase inhibitor (BCH-1) at a level of 10 mg/kg.

E. coli A20341-1 = test: In vitro antibacterial activity, MIC by tube dilution; assay type: cell-based; details: Escherichia coli, overnight 37° C., Nutrient Broth
[3] = test system: P. aeruginosa (Carbenicillin-resistant) A21213; test: microbe, parasite or virus in culture; details: Pseudomonas aeruginosa
S. pneumoniae A-9585 = test: In vitro antibacterial activity, MIC by tube dilution; assay type: cell-based; details: Streptococcus pneumoniae, overnight 37° C., Nutrient Broth
S. aureus A-9537 [4] = test: as above; assay type: cell-based; details: overnight 37° C., Nutrient Broth
S. marcescens A20019 = test: as above; assay type: cell-based; details: overnight 37° C., Nutrient Broth
[5] = test system: S. aureus (Penicillin-resistant) A-9606; test: as above; assay type: cell-based; details: Staphylococcus aureus, Nutrient Broth
S. aureus A-9537 [6] = test: In vitro antibacterial activity, MIC by tube dilution, 50% serum; assay type: cell-based
S. faecalis A20688 = test: In vitro antibacterial activity, MIC by tube dilution; assay type: cell-based; details: overnight 37° C., Nutrient Broth
K. pneumoniae A20468 = test: as above; assay type: cell-based; details: Klebsiella pneumoniae, A20468, Lot# 1794-27; overnight 37° C., Nutrient Broth
P. vulgaris A21559 = test: as above; assay type: cell-based; details: overnight 37° C., Nutrient Broth
E. cloacae A-9656 = test: as above; assay type: cell-based; details: Enterobacter cloacae, A9656, Lot# 1794-27; overnight 37° C., Nutrient Broth
P. mirabilis A-9900 = test: as above; assay type: cell-based; details: overnight 37° C., Nutrient Broth
E. coli A15119 = test: as above; assay type: cell-based; details: Escherichia coli, overnight 37° C., Nutrient Broth
P. aeruginosa A-9843A = test: as above; assay type: cell-based; details: overnight 37° C., Nutrient Broth
[7] = Half-life in pH 7.4 biological buffer; assay type: physicochemical; details: 37° C.
Method: To a cooled (5° C.) solution of (5R,6S)p-nitrobenzyl-6-(1^1 R-hydroxyethyl)-4R-methyl-3-(1-methyl-4-thiatetrahydrothiopyranium)-7-oxo- 1-azabicyclo[3.2.0]hept-2-ene-2-carboxyl-diphenylphosphate (2.40 g, 3.23 mmol) in tetrahydrofuran (240 mL) and 0.05M pH 7.0 phosphate buffer (240 mL) was added ether (240 mL) and 10% Pd/C (2.4 g). The mixture was hydrogenated in a Paar apparatus at 45 psi H2 at 15° C. for 1 hour. The solution was then filtered through glass fiber paper and the catalyst was washed with water (25 mL). The aqueous phase of the filtrate was washed with ether (2×100 mL) and purged under vacuum to remove any trace of organic solvent. The product was purified by reversed phase chromatography on μBondapak C-18 silica gel (100 g) using mixtures of acetonitrile-water as the eluent (10% CH3 CN--H2 O, quantity mL; 0%, 500 mL; 2%, 500 mL; 4%, 500 mL; 10%, 250 mL) to give 1.08 g of impure proudct. After lyophilization, this product and a 0.020 g sample from another experiment (starting from 0.067 mmol of the ester) was purified by hplc (hplc data re: C18 μBondapak, using 5% CH3 CN--H2 O at 4 mL/min, R. I. detector) to give 328 mg. […]

[8] = test system: various Pseudomonas species; details: prior art statement; cited from earlier work

Structure (SMILES): C[C@@H](O)[C@H]1C(=O)N2C(C(=O)[O-])=C(SC3CC[S+](C)CC3)C[C@H]12 (some centres unmarked) [Example 1]
MIC (K. pneumoniae A-9664): 0.03 mg/L (≈ 0.0873 µM)
MIC (S. pyogenes A-9604; Lot# 1794-27): 0.004 mg/L (≈ 0.0116 µM)
MIC (S. pyogenes A-9604; Streptococcus pyogenes, A9604, Lot# 1794-20, read-out: MIC): 0.004 mg/L (≈ 0.0116 µM)
ED50 (P. aeruginosa A9843a): 0.71 mg/kg
MIC [1]: 0.25 mg/L (≈ 0.728 µM)
dose excreted at 3 h (Urinary recovery in mice; with BCH-1 10 mg/kg i.p., read-out: Percent Recovered (urine)): 67%
dose excreted at 3 h (Urinary recovery in mice; without BCH-1, read-out: Percent Recovered (urine)): 44%
dose excreted at 6 h (Urinary recovery in mice; 0-6 hr., with BCH-1 10 mg/kg i.p., read-out: Percent Recovered (urine)): 67.1%
dose excreted at 6 h (Urinary recovery in mice; 0-6 hr., without BCH-1, read-out: Percent Recovered (urine)): 44.2%
dose excreted at 6 h (Urinary recovery in mice; 3-6 hr., with BCH-1 10 mg/kg i.p., read-out: Percent Recovered (urine)): 0.1%
dose excreted at 6 h (Urinary recovery in mice; 3-6 hr., without BCH-1, read-out: Percent Recovered (urine)): 0.2%
MIC (E. cloacae A-9659): 0.25 mg/L (≈ 0.728 µM)
AUC ([2]; with BCH-1 10 mg/kg i.p.): 10.9 µg·h/mL
Cmax ([2]; with BCH-1 10 mg/kg i.p.): 16.1 µg/mL
Tmax ([2]; with BCH-1 10 mg/kg i.p.): 20 min
half-life ([2]; with BCH-1 10 mg/kg i.p.): 10 min
AUC ([2]; without BCH-1): 6.8 µg·h/mL
Cmax ([2]; without BCH-1): 15.4 µg/mL
Tmax ([2]; without BCH-1): 10 min
half-life ([2]; without BCH-1): 9 min
concentration at 10 min ([2]; with BCH-1 10 mg/kg i.p.): 15.4 µg/mL
concentration at 10 min ([2]; without BCH-1): 15.4 µg/mL
concentration at 20 min ([2]; with BCH-1 10 mg/kg i.p.): 16.1 µg/mL
concentration at 20 min ([2]; without BCH-1): 11.4 µg/mL
concentration at 0.5 h ([2]; with BCH-1 10 mg/kg i.p.): 12.6 µg/mL
concentration at 0.5 h ([2]; without BCH-1): 7.2 µg/mL
concentration at 0.75 h ([2]; with BCH-1 10 mg/kg i.p.): 7.4 µg/mL
concentration at 0.75 h ([2]; without BCH-1): 2.9 µg/mL
concentration at 1 h ([2]; with BCH-1 10 mg/kg i.p.): 3 µg/mL
concentration at 1 h ([2]; without BCH-1): 0.7 µg/mL
concentration at 1.5 h ([2]; with BCH-1 10 mg/kg i.p.): 0.3 µg/mL
concentration at 1.5 h ([2]; without BCH-1): 0.3 µg/mL
MIC (E. coli A20341-1; A203411, Lot# 1794-20): 0.016 mg/L (≈ 0.0466 µM)
MIC (E. coli A20341-1; A203411, Lot# 1794-27): 0.03 mg/L (≈ 0.0873 µM)
MIC [3]: 0.25 mg/L (≈ 0.728 µM)
MIC (S. pneumoniae A-9585; A9585, Lot# 1794-20): 0.001 mg/L (≈ 0.00291 µM)
MIC (S. pneumoniae A-9585; A9585, Lot# 1794-27): 0.002 mg/L (≈ 0.00582 µM)
MIC (S. aureus A-9537 [4]; Lot# 1794-27): 0.008 mg/L (≈ 0.0233 µM)
MIC (S. aureus A-9537 [4]; Staphylococcus aureus, A9537, Lot# 1794-20, read-out: MIC): 0.008 mg/L (≈ 0.0233 µM)
MIC (S. marcescens A20019; Lot# 1794-27): 0.03 mg/L (≈ 0.0873 µM)
MIC (S. marcescens A20019; Serratia marcescens, A20019, Lot# 1794-20, read-out: MIC): 0.03 mg/L (≈ 0.0873 µM)
MIC ([5]; Lot# 1794-20, overnight 37° C.): 0.016 mg/L (≈ 0.0466 µM)
MIC ([5]; Lot# 1794-27, overnight 37° C.): 0.03 mg/L (≈ 0.0873 µM)
MIC (S. aureus A-9537 [6]; Lot# 1794-27, overnight 37° C.): 0.016 mg/L (≈ 0.0466 µM)
MIC (S. aureus A-9537 [6]; Staphylococcus aureus, A9537, Lot# 1794-20, overnight 37° C., read-out: MIC): 0.016 mg/L (≈ 0.0466 µM)
MIC (S. faecalis A20688; Enterococcus faecalis, A20688, Lot# 1794-20, read-out: MIC): 0.5 mg/L (≈ 1.46 µM)
MIC (S. faecalis A20688; Lot# 1794-27): 0.5 mg/L (≈ 1.46 µM)
MIC (K. pneumoniae A20468): 0.25 mg/L (≈ 0.728 µM)
MIC (P. vulgaris A21559; Lot# 1794-27): 0.016 mg/L (≈ 0.0466 µM)
MIC (P. vulgaris A21559; Proteus vulgaris, A21559, Lot# 1794-20, read-out: MIC): 0.016 mg/L (≈ 0.0466 µM)
MIC (E. cloacae A-9656): 0.25 mg/L (≈ 0.728 µM)
MIC (P. mirabilis A-9900; Lot# 1794-27): 0.016 mg/L (≈ 0.0466 µM)
MIC (P. mirabilis A-9900; Proteus mirabilis, A9900, Lot# 1794-20, read-out: MIC): 0.016 mg/L (≈ 0.0466 µM)
MIC (E. coli A15119; A15119, Lot# 1794-20): 0.008 mg/L (≈ 0.0233 µM)
MIC (E. coli A15119; A15119, Lot# 1794-27): 0.016 mg/L (≈ 0.0466 µM)
MIC (P. aeruginosa A-9843A; Lot# 1794-27): 2 mg/L (≈ 5.82 µM)
MIC (P. aeruginosa A-9843A; Pseudomonas aeruginosa, A9843A, Lot# 1794-20, read-out: MIC): 2 mg/L (≈ 5.82 µM)

half-life [7]: 1800 min
Structure (SMILES): C[C@@H](O)[C@H]1C(=O)N2C(C(=O)[O-])=C(SC3CC[S+](C)CC3)[C@H](C)[C@H]12 (stereo partly drawn) [Example 2, (5R,6S)-6-(1R-hydroxyethyl)-4R-methyl-3-(1-methyl-4-thiatetrahydrothiopyranium)-7-oxo-1-azabicyclo[3.2.0]-hept-2-ene-2-carboxylate]

Structure (SMILES): C[C@@H](O)[C@H]1C(=O)N2C(C(=O)O)=C(SCCN)C[C@H]12 [Thienamycin, thienamycin]
activity against various Pseudomonas species [8]: notable activity
